Data as given in patent publication US5342947A, “Preparation of water soluble camptothecin derivatives” (Glaxo Inc., priority 1992, dated 1994).
pIC50: −log10 of the molar value. Like-named read-outs stand apart in the source and are kept apart here.

Legend:
topoisomerase Type I = biological target: T1, topoisomerase Type I (Bos taurus, UniProt F1MN93); assay: Cleavable Complex in vitro Assay (topoisomerase Type I inhibitory activity); type: biochemical
T1 sequence (F1MN93 1-767): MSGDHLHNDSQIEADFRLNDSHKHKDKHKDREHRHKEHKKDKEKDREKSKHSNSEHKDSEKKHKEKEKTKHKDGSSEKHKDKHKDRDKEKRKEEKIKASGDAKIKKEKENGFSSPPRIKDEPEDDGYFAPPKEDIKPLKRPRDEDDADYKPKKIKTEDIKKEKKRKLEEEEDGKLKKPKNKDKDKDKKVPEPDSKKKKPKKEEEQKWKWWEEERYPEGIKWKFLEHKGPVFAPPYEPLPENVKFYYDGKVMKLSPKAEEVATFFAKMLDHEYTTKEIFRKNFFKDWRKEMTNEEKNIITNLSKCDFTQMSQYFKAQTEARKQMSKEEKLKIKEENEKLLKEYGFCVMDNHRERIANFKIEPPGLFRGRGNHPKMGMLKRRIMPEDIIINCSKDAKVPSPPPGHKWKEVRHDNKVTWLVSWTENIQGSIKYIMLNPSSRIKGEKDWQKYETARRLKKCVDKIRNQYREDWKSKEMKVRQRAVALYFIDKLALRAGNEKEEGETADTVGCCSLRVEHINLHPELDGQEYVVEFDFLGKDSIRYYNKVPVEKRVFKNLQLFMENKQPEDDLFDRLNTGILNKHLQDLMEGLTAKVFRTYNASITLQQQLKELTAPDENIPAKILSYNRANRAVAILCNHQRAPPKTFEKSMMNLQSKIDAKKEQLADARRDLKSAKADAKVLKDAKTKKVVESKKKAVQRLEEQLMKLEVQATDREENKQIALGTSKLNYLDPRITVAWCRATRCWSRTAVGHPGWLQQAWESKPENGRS
Description: This assay performed according to the method described in Hsiang, Y. et al., J. Biol. Chem., 260:14873-14878 (1985), correlates well with in vivo anti-tumor activity of topoisomerase inhibitors in animal models of cancer, e.g., camptothecin and its analogs. See Hsiang et al., Cancer Research, 49:4385-4389 (1989) and Jaxel et al., Cancer Research, 49:1465-1469 (1989).
The term "IC50 " means the concentration of a compound of formula (I) at which 50% of the DNA substrate has been captured by topoisomerase I.

[1] = in words, background; cited from earlier work
[2] = Wani et al., J. Med. Chem. 29, 2358 (1986) and 30, 2317 (1987); cited from earlier work
HT-29 human colon tumor = assay: Human Colorectal Adenocarcinoma HT-29 Xenograft in vivo Assay; parameters: species or system human tumor xenograft in female NU/NU mice; conditions: for tumor wt day 50 / tumor wt day 14: s.c. twice a week for 5 weeks; for effect on tumor (stasis / regression): after 5 weeks of dosing, day 50 vs day 14, ratio 1 = stasis, <1 = regression
Procedure: Female NU/NU mice weighing 21±2 g, are used for this modified version of the test described by B. C. Giovanella, et al., Science, 246 1046 (1989). Control and test animals are injected subcutaneously in the sub-scapular region with a suspension of 10^6 viable HT-29 human colon tumor cells on day 0. Tumors are allowed to grow for 2 weeks prior to drug administration. For each drug, several doses are chosen based on its in vitro activity against topoisomerase I. Each dose level group contains 8 animals. The test compounds are prepared in either 0.1M acetate buffer, pH 5 (vehicle "a") or 87.5% phosphate buffered saline, 12.375% dimethylsulfoxide, and 0.125% Tween 80 (trademark of ICI America for polyoxyethylenesorbitan monooleate) (vehicle "b") and are administered subcutaneously twice a week for 5 weeks beginning on day 14. Doses are given on a mg/kg basis according to the mean body weight for each cage.
Tumor weight is calculated from two perpendicular caliper measurements of the tumor using the formula, tumor weight=length×width^2 […] in millimeters. For each animal, tumor weight is monitored over the course of the experiment. For each group, the results are expressed as the ratio of the mean tumor weight immediately after 5 weeks of treatment (day 50) divided by the mean tumor weight immediately before treatment (day 14). […] The criterion for antitumor activity is at least 50% inhibition of tumor growth after 5 weeks of dosing (day 50), giving a ratio of less than or equal to […].

certain solid tumors = conditions: laboratory animals; cited from earlier work
leukemia (L-1210) = conditions: laboratory animals; cited from earlier work
[3] = Cleavable Complex Assay, read-out: Relative IC50 (concentration at which 50% of the DNA substrate has been captured by topoisomerase I)

CCC1(O)C(=O)OCc2c1cc1n(c2=O)Cc2c-1nc1cc3c(cc1c2CN(C)C)OCO3 (racemic) [Example 1]
pIC50 (topoisomerase Type I; read-out: Relative IC50 (concentration at which 50% of the DNA substrate has been captured by topoisomerase I), Cleavable Complex Assay): > 6.30

CCC1(O)C(=O)OCc2c1cc1n(c2=O)Cc2c-1nc1cc3c(cc1c2CN1CCOCC1)OCCO3 (racemic) [Example 5, 7-Morpholinomethylene-10,11-ethylenedioxy-20(R,S)-camptothecin]
pIC50 (topoisomerase Type I): > 6.30

CCC1(O)C(=O)OCc2c1cc1n(c2=O)Cc2c-1nc1cc3c(cc1c2CN1CCCC1)OCCO3 (racemic) [Example 7, 7-Pyrrolidinomethylene-10,11-ethylenedioxy-20(R,S)-camptothecin]
pIC50 (topoisomerase Type I): 5.70 to 6.00

CCC1(O)C(=O)OCc2c1cc1n(c2=O)Cc2c-1nc1cc3c(cc1c2CN1CCCCC1)OCO3 (racemic) [Example 8, 7-Piperidinomethylene-10,11-methylenedioxy-20(R,S)-camptothecin]
pIC50 (topoisomerase Type I): < 5.70

CCC1(O)C(=O)OCc2c1cc1n(c2=O)Cc2c-1nc1cc3c(cc1c2CN1CCCCC1)OCCO3 (racemic) [Example 9, 7-Piperidinomethylene-10, 11-ethylenedioxy-20(R,S)-camptothecin]
pIC50 (topoisomerase Type I): 6.00 to 6.30

CCC1(O)C(=O)OCc2c1cc1n(c2=O)Cc2c-1nc1cc3c(cc1c2CN1CCN(C)CC1)OCCO3 (racemic) [Example 10, 7-(4-methylpiperazinomethylene)-10, 11-ethylenedioxy-20(R,S)-camptothecin]
pIC50 (topoisomerase Type I; [3]): 6.00 to 6.30

CCN(CC)Cc1c2c(nc3cc4c(cc13)OCCO4)-c1cc3c(c(=O)n1C2)COC(=O)C3(O)CC (racemic) [Example 13, 7-Diethylaminomethylene-10, 11-ethylenedioxy-20(R,S)-camptothecin]
pIC50 (topoisomerase Type I): 6.00 to 6.30

CCC1(O)C(=O)OCc2c1cc1n(c2=O)Cc2c-1nc1cc3c(cc1c2CN(C)CCO)OCO3 (racemic) [Example 15, 7-N-Methylethanolaminomethylene-10, 11-methylenedioxy-20(R,S)-camptothecin]
pIC50 (topoisomerase Type I): 5.70 to 6.00

CCC1(O)C(=O)OCc2c1cc1n(c2=O)Cc2c-1nc1cc3c(cc1c2CN(C)CCO)OCCO3 (racemic) [Example 16, 7-N-Methylethanolaminomethylene-10, 11-ethylenedioxy-20(R,S)-camptothecin]
pIC50 (topoisomerase Type I): 5.70 to 6.00

CCC1(O)C(=O)OCc2c1cc1n(c2=O)Cc2c-1nc1cc3c(cc1c2CN(CCO)CCO)OCCO3 (racemic) [Example 17, 7-Diethanolaminomethylene-10, 11-ethylenedioxy-20(R,S)-camptothecin]
pIC50 (topoisomerase Type I): > 6.30

CCC1(O)C(=O)OCc2c1cc1n(c2=O)Cc2c-1nc1cc3c(cc1c2CN1CCC1)OCO3 (racemic) [Example 19, 7-Azetidinomethylene-10, 11-methylenedioxy-20(R,S)-camptothecin]
pIC50 (topoisomerase Type I): 5.70 to 6.00

CCC1(O)C(=O)OCc2c1cc1n(c2=O)Cc2cc3cc4c(cc3nc2-1)OCO4 (centres unmarked) [10, 11-methylenedioxycamptothecin]
solubility in water / physiologically compatible, aqueous media [1]: as poor as camptothecin | potency relative to unsubstituted camptothecin [2]: more potent than unsubstituted camptothecin

CC[C@@]1(O)C(=O)OCc2c1cc1n(c2=O)Cc2c-1nc1cc3c(cc1c2CN(C)C)OCO3 [Example 2, 7-Dimethylaminomethylene-10, 11-methylenedioxy-20(S)-camptothecin]
tumor wt day 50 / tumor wt day 14 (HT-29 human colon tumor; 0.8 mg/kg (optimal dose), vehicle b (PBS/DMSO/Tween 80), vehicle control 21.8): 1.8 | pIC50 (topoisomerase Type I): > 6.30

CC[C@@]1(O)C(=O)OCc2c1cc1n(c2=O)Cc2c-1nc1cc3c(cc1c2CN(C)C)OCCO3 [Example 4, 7-Dimethylaminomethylene-10, 11-ethylenedioxy-20(S)-camptothecin]
tumor wt day 50 / tumor wt day 14 (HT-29 human colon tumor; 7.0 mg/kg (optimal dose), vehicle a (0.1M acetate buffer, pH 5), vehicle control 20.0): 1.3 | tumor wt day 50 / tumor wt day 14 (HT-29 human colon tumor; 7.0 mg/kg (optimal dose), vehicle b (PBS/DMSO/Tween 80), vehicle control 21.8): 1.0 | effect on tumor (stasis / regression) (HT-29 human colon tumor): tumor stasis | pIC50 (topoisomerase Type I): 6.00 to 6.30

CC[C@@]1(O)C(=O)OCc2c1cc1n(c2=O)Cc2c-1nc1cc3c(cc1c2CN1CCOCC1)OCCO3 [Example 6, 7-Morpholinomethylene-10,11-ethylenedioxy-20(S)-camptothecin]
tumor wt day 50 / tumor wt day 14 (HT-29 human colon tumor; 1.0 mg/kg (optimal dose), vehicle b (PBS/DMSO/Tween 80), vehicle control 21.8): 1.0 | effect on tumor (stasis / regression) (HT-29 human colon tumor): tumor stasis | pIC50 (topoisomerase Type I): > 6.30

CC[C@@]1(O)C(=O)OCc2c1cc1n(c2=O)Cc2c-1nc1cc3c(cc1c2CN1CCN(C)CC1)OCCO3 [Example 11, 7-(4-methylpiperazinomethylene)-10, 11-ethylenedioxy-20(S)-camptothecin]
tumor wt day 50 / tumor wt day 14 (HT-29 human colon tumor; 9.0 mg/kg (optimal dose), vehicle a (0.1M acetate buffer, pH 5), vehicle control 20.0): 0.6 | effect on tumor (stasis / regression) (HT-29 human colon tumor): tumor regression | pIC50 (topoisomerase Type I; [3]): > 6.30

CCN(CC)Cc1c2c(nc3cc4c(cc13)OCCO4)-c1cc3c(c(=O)n1C2)COC(=O)[C@]3(O)CC [Example 14, 7-Diethylaminomethylene-10, 11-ethylenedioxy-20(S)-camptothecin]
tumor wt day 50 / tumor wt day 14 (HT-29 human colon tumor; 2.0 mg/kg (optimal dose), vehicle a (0.1M acetate buffer, pH 5), vehicle control 20.0): 2.0

CC[C@@]1(O)C(=O)OCc2c1cc1n(c2=O)Cc2c-1nc1cc3c(cc1c2CN1CCC1)OCO3 [Example 20, 7-Azetidinomethylene-10, 11-methylenedioxy-20(S)-camptothecin]
tumor wt day 50 / tumor wt day 14 (HT-29 human colon tumor; 1.5 mg/kg (optimal dose), vehicle a (0.1M acetate buffer, pH 5), vehicle control 20.0): 1.5

CC[C@@]1(O)C(=O)OCc2c1cc1n(c2=O)Cc2c-1nc1cc3c(cc1c2CN1CCC1)OCCO3 [Example 22, 7-Azetidinomethylene-10, 11-ethylenedioxy-20(S)-camptothecin]
tumor wt day 50 / tumor wt day 14 (HT-29 human colon tumor; 12.0 mg/kg (optimal dose), vehicle a (0.1M acetate buffer, pH 5), vehicle control 20.0): 1.6

CC[C@@]1(O)C(=O)OCc2c1cc1n(c2=O)Cc2c-1nc1cc3c(cc1c2CN1CCN(C)CC1)OCO3 [Example 23, 7-(4-Methylpiperazinomethylene)-10, 11-methylenedioxy-20(S)-camptothecin]
tumor wt day 50 / tumor wt day 14 (HT-29 human colon tumor; 3.0 mg/kg (optimal dose), vehicle a (0.1M acetate buffer, pH 5), vehicle control 20.0): 0.5 | effect on tumor (stasis / regression) (HT-29 human colon tumor): tumor regression

CC[C@@]1(O)C(=O)OCc2c1cc1n(c2=O)Cc2cc3ccccc3nc2-1 [camptothecin, Camptothecin]
effectiveness in treatment of certain solid tumors (certain solid tumors): effective | effectiveness in treatment of leukemia (L-1210) (leukemia (L-1210)): effective
